Experiment [1] has as its system UCP2-dependent mitochondrial respiration. The experiment is described as follows: Uncoupled mitochondrial respiration in pooled midbrain of UCP2 wt or ko mice. Format: in vivo. Particulars: ghrelin IP 30 nmol, 3 hours. The procedure: Rats were used as the mitochondrial yield after isolation is much higher than the yield from mice. Mitochondrial respiration was also examined in the pooled midbrain of UCP2 ko and wt mice (3 pooled brains), 3 hours after ghrelin injection (IP 30 nmol).
(§1) Mitochondria were pooled from the SN-VTA (4 animals=1, total n=4) and isolated by differential centrifugation. Because of the size of the tissue dissected, it was impossible to solely isolate only the SNc, and as such the results are reported as SN-VTA. Briefly, the SN-VTA was rapidly dissected and homogenized in isolation buffer (215 mM Mannitol, 75 mM sucrose, 0.1% fatty acid free BSA, 20 mM Hepes, 1 mM EGTA, pH adjusted to 7.2 with KOH). The homogenate was spun at 1300×g for 3 minutes. The supernatant was removed, and the pellet was resuspended with isolation buffer and spun again at 1300×g for 3 minutes. The 2 sets of supernatant from each sample were topped off with isolation buffer and spun at 13000×g for 10 minutes. The supernatant was discarded, and this step was repeated. After this second spin at 13000×g, the supernatant was discarded, and the pellets were resuspended with isolation buffer without EGTA and spun at 10000×g for 10 minutes. The final mitochondrial pellet was resuspended with 50 μl of isolation buffer without EGTA. Protein concentrations were determined with a BCA protein assay kit (Pierce, Rockford, Ill., USA).
(§2) Mitochondrial respirations were assessed using a Clark-type oxygen electrode (Hansatech Instruments, Norfolk, England) at 37° C. with pyruvate and malate (5 mM and 2.5 mM) as oxidative substrates in respiration buffer (215 mM Mannitol, 75 mM sucrose, 0.1% fatty acid free BSA, 20 mM Hepes, 2 mM MgC1, 2.5 mM KH2PO4, pH adjusted to 7.2 with KOH). Following the addition of ADP and oligomycin, UCP-mediated proton conductance was measured as increased fatty acid-induced respiration (Echtay et al., 2002), which was then compared to state 4 respiration induced by oligomycin, an inhibitor of H^+ transporting ATP synthase.
To test whether UCP2 is important in ghrelin-induced midbrain respiration, mitochondria were isolated from the midbrain of pooled UCP2 wt or ko mice treated with ghrelin or saline, and uncoupled respiration was measured.

Experiment [2] concerns midbrain (SN-VTA) mitochondria. In words: Mitochondrial respiration in midbrain of ghrelin-treated rats (Clark-type oxygen electrode). Particulars: 30 nmol IP, 3 hours. Type of experiment: in vivo. The method, then:
Mitochondrial respiration: The ability of ghrelin to promote mitochondrial respiration was examined in mitochondria isolated from midbrain of ghrelin-treated rats (30 nmol) three hours after injection. Rats were used as the mitochondrial yield after isolation is much higher than the yield from mice. Mitochondrial respiration was also examined in the pooled midbrain of UCP2 ko and wt mice (3 pooled brains), 3 hours after ghrelin injection (IP 30 nmol).
as §1, §2
To determine whether ghrelin influences mitochondrial metabolism in the SNpc, mitochondrial respiration was measured in isolated […] from the midbrain of ghrelin-treated wild-type rats.
Ghrelin was administered intraperitoneally (30 nmol) and food was removed for the three hours injection period prior to sacrifice as ingested calorie load and the postprandial increase in glucose and insulin are known to reduce ghrelin effectiveness (Callahan et al., 2004, J Clin Endocrinol Metab 89: 1319-24; Cummings et al., 2006, Physiol Behav 89: 71-84). […] Subsequent blocking of the ATP synthase with oligomycin produced greater basal uncoupling after ghrelin (saline 31.4±1.4 vs ghrelin 50.4±1.5, p<0.0001; FIG. 4A). Palmitate (free fatty-acid) induced respiration was also elevated in ghrelin-treated rats (saline 125.0±3.8 vs ghrelin 185.3±9.3, p<0.001; FIG. 4A). Finally, ghrelin increased FCCP-driven respiration, an index of total uncoupling capacity of the inner mitochondrial membrane (FIG. 4A).

For experiment [3], the system named is SNpc DA neurons. The experiment is described as follows: Whole-cell patch clamp, action potential firing of SNpc DA neurons in brain slices. Type of experiment: cell-based, mice and rats. The procedure:
Patch clamp recordings from VTA dopamine neurons: Brain slices (300 μm) containing the substantia nigra pars compacta (SNpc), were cut on a vibratome from 2-3 week old male and female mice (n=9) and rats (n=5). Briefly, animals were anesthetized with Nembutal (80 milligram/kilogram body weight) and then decapitated. The brains were rapidly removed and immersed in cold (4° C.) oxygenated bath solution (containing (mM): NaCl 150; KCl 2.5; CaCl2 2; MgCl2 2; Hepes 10; and glucose 10, pH 7.3 with NaOH). After being trimmed to contain only the SNpc, slices were transferred to a recording chamber where they were constantly perfused with bath solution at 2 milliliter/minute. Dopamine neurons in the SNpc were identified by presence of a large Ih current (>100 pA) evoked by hyperpolarizing voltage steps from −50 to −120 mV for 2 seconds. This approach identifies dopaminergic cells with >90% accuracy (Abizaid et al., 2006, J Clin Invest. 116(12):3229-39. Epub 2006 Oct. 19). In brain slices, whole-cell current clamp was used to observe spontaneous action potentials. Slices were maintained at 33° C. and perfused continuously with ASCF (bubbled with 5% CO2 and 95% O2) containing (in mM): NaCl, 124; KCl, 3; CaCl2, 2; MgCl2, 2; NaH2PO4, 1.23; NaHCO3, 26; glucose, 10, pH 7.4 with NaOH. Ghrelin was applied to the recording chamber via bath application. The pipette solution contained (mM): gluconic acid 140; CaCl2, MgCl2 2; EGTA 1; HEPES 10; Mg-ATP; 4, and Na2-GTP; 0.5, pH 7.3 with KOH
To address this question, an experiment using whole-cell patch clamp electrophysiology was performed to investigate whether ghrelin directly activates SNpc DA neurons. DA neurons (n=11) in the SNpc were identified based on their characteristic Ih currents (Johnson et al., 1992, J Neurosci 12: 483-8). Spontaneous action potentials were recorded under current clamp for at least 10 minutes of stable recording. Ghrelin (1-3 μmol) was applied via bath application.
(In patch-clamp work, channel activity is measured electrically.)

No end group written: not given here. *: point of attachment. Octanoyl = CCCCCCCC(=O)*

On to “ghrelin (GSS(Octanoyl)FLSPEHQRVQQRKESKKPPAKLQPR; listed as Homo sapiens) [28 amino acid acyl-peptide esterified with octanoic acid on Ser3; endogenous ligand of GHSR]”, for which the “Basal uncoupled respiration after oligomycin, UCP2 ko mice” value in experiment [1] (ko saline 34.2±2.6) was found to be 39.2±0.4. In experiment [1] (ko saline 96.0±7.5), the “Mitochondrial respiration after palmitate, UCP2 ko mice” value is listed as 109.7±2.9. Also, in experiment [1] (wt saline 32.7±1.6), the “Basal uncoupled respiration after oligomycin, UCP2 wt mice” value is reported as 41.5±1.9. The “Mitochondrial respiration after palmitate, UCP2 wt mice” value in experiment [1] (wt saline 106.3±5.3) is recorded as 134.5±4.5. Further, the “FCCP-driven respiration, UCP2 wt mice” value in experiment [1] (wt saline 352±14.1) stood at 472±12.7. Besides, in experiment [2], the FCCP-driven respiration entry is recorded as “increased”. For the same substance, the “Basal uncoupling after oligomycin” value in experiment [2] (saline 31.4±1.4) was 50.4±1.5. Further, the “Mitochondrial respiration after pyruvate and malate” value in experiment [2] (saline 33.5±2.1) is listed as 49.5±1.9. Also, the Palmitate induced respiration in experiment [2] (saline 125.0±3.8) is given as 185.3±9.3. Further, the “Mitochondrial respiration after ADP” value in experiment [2] (saline 128.3±7.5) was found to be 185.2±17.7. For the same substance, the Action potential frequency in experiment [3] (ghrelin 1-3 μmol bath application, control 100%) was 131.9%±17.5. The “Identified DA neurons that responded” value in experiment [3] (ghrelin bath application) is listed as 10 of 11. Moreover, the “Action potential frequency after washout” value in experiment [3] (washout of ghrelin, control 100%) is given as 101.9%±4.6.

Source of the values: patent US20100216706A1, “Ghrelin Protects Substantia Nigra Dopamine Neurons” (priority 2007, published 2010).
